Values joined by “and” are separate entries in the source; they are usually repeats but may differ in a detail not shown here. Equal values may be shown once. Read-outs that look alike come from different tables or passages of the source.
Biological target: T1, canine TRPM8 (Canis lupus familiaris, UniProt Q1A7N1)
T1 construct: expressed in transfected cells
Assay: In vitro canine TRPM8 functional assay (Ca2+-sensitive dye, FLIPR/FDSS, icilin activation)
Assay type: cell-based
Conditions: HEK293 cells expressing canine TRPM8, icilin activation; for % I (1 μM): 1 μM compound; for IC50: eight-point dose-response; for % I (0.5 μM): 0.5 μM compound; for % I (5 μM): 5 μM compound
Method in brief: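 Icilin challenge (final concentration producing ~80% of maximal response) followed a 5 min compound exposure in canine TRPM8-HEK293 cells dye-loaded with Calcium 3. Intracellular Ca2+ was read on FLIPR/FDSS. EC50 and IC50 values came from nonlinear sigmoidal dose-response fits of basal-subtracted, percent-of-maximum data averaged over quadruplicates.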

[1] = HEK293, read-out: % I (1 μM), 1 μM compound
[2] = HEK293, 0.5 μM compound, read-out: % I (0.5 μM)
[3] = HEK293, 1 μM compound, read-out: % I (1 μM)

T1 sequence (Q1A7N1 1-1104): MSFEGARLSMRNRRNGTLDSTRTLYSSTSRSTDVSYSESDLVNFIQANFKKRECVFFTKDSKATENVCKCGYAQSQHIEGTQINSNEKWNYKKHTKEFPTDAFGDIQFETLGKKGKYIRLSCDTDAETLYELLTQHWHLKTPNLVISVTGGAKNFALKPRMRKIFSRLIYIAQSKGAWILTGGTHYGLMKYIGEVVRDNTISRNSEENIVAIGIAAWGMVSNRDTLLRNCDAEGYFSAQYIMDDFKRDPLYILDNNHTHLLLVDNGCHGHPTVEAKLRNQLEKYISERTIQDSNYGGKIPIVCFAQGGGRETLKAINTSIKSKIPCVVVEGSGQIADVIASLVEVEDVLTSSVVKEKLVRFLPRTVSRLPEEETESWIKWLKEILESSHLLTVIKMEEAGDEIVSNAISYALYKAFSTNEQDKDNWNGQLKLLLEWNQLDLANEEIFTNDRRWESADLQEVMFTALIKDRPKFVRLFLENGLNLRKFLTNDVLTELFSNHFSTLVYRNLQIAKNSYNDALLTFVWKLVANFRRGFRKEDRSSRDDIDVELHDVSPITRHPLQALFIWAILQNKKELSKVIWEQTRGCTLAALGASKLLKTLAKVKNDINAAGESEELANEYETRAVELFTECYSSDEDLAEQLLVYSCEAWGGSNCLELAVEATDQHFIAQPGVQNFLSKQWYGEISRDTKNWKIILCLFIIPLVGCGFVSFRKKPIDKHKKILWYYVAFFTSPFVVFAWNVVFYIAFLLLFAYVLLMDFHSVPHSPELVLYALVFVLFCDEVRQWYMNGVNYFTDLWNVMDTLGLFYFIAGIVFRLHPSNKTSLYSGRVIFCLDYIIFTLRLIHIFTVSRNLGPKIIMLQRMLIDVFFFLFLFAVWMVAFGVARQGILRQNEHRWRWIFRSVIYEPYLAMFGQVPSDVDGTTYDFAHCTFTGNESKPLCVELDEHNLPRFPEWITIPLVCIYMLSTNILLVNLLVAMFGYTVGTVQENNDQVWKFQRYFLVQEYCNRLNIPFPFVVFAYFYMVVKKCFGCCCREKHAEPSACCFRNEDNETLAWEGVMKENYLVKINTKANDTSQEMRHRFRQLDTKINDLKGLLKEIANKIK

CC(C)OP(=O)(OC(C)C)C(Cc1cccc(Cl)c1)c1cc2ccccc2s1 (centres unmarked) [Cpd 134]
% I (1 μM): 101%
IC50 (read-out: IC50): 0.34 µM

CCOP(=O)(OCC)C(Cc1cccc(-c2ccccc2)c1)c1sc2ccccc2c1C (centres unmarked) [Cpd 77]
inhibition at 1 µM [1]: 98%
IC50 (IC50 (μM)): 0.41 µM

CC(C)OP(=O)(OC(C)C)C(Cc1cccc(Cl)c1F)c1sc2ccccc2c1Br (centres unmarked) [Cpd 267]
% I (1 μM): 101% and 102%
IC50 (read-out: IC50): 0.047 µM and 0.029 µM

CCOP(=O)(OCC)C(Cc1cccc(Br)c1)c1sc2ccccc2c1Cl (centres unmarked) [Cpd 275]
% I (0.5 μM): 103%
IC50 (read-out: IC50): 0.104 µM

CCOP(=O)(OCC)C(Cc1ccc(OC(F)(F)F)c(Cl)c1)c1sc2ccccc2c1Cl (centres unmarked) [Cpd 271]
% I (0.5 μM): 103%
IC50 (read-out: IC50): 0.104 µM

CC(=O)n1c(C(Cc2ccc(F)c(C(F)(F)F)c2)P(=O)(OC(C)C)OC(C)C)c(Br)c2ccccc21 (centres unmarked) [Cpd 331]
% I (0.5 μM): 101%
IC50 (read-out: IC50): 0.152 µM

CCOP(=O)(OCC)C(Cc1cccc(-n2cccc2)c1)c1sc2ccccc2c1Br (centres unmarked) [Cpd 310]
% I (0.5 μM): 102%
IC50 (read-out: IC50): 0.042 µM

CC(C)OP(=O)(OC(C)C)C(Cc1ccc(OC(F)(F)F)c(Cl)c1)c1sc2ccccc2c1Cl (centres unmarked) [Cpd 184]
% I (0.5 μM): 104%
IC50 (read-out: IC50): 0.057 µM

CCOP(=O)(OCC)C(Cc1ccc(F)c(F)c1)c1sc2cc(F)ccc2c1C (centres unmarked) [Cpd 16, [2-(3,4-Difluoro-phenyl)-1-(6-fluoro-3-methyl-benzo[b]-thiophene-2-yl)-ethyl]-phosphonic acid diethyl ester]
inhibition at 1 µM [1]: 100%
IC50 (IC50 (μM)): 0.057 µM and 0.064 µM

CCOP(=O)(OCC)C(Cc1ccc(F)c(F)c1)c1sc2ccccc2c1-c1ccc(F)nc1 (centres unmarked) [Cpd 130, {2-(3,4-Difluoro-phenyl)-1-[3-(6-fluoro-pyridin-3-yl)-benzo[b]thiophen-2-yl]-ethyl}-phosphonic acid diethyl ester]
inhibition at 1 µM [1]: 100%
IC50 (IC50 (μM)): 0.11 µM

CCOP(=O)(OCC)C(Cc1ccccc1C(F)(F)F)c1sc2ccccc2c1Br (centres unmarked) [Cpd 260]
% I (0.5 μM): 103%
IC50 (read-out: IC50): 0.077 µM and 0.056 µM

CCOP(=O)(OCC)C(Cc1ccc(Cl)c(C(F)(F)F)c1)c1sc2ccccc2c1Br (centres unmarked) [Cpd 139]
% I (0.5 μM): 102%
IC50 (read-out: IC50): 0.06 µM

CC(C)OP(=O)(OC(C)C)C(Cc1ccc(F)cc1C(F)(F)F)c1sc2ccccc2c1Cl (centres unmarked) [Cpd 254]
% I (0.5 μM): 103%
IC50 (read-out: IC50): 0.079 µM

CSc1ccc(CC(c2sc3ccccc3c2Br)P(=O)(OC(C)C)OC(C)C)cc1 (centres unmarked) [Cpd 251]
% I (0.5 μM): 103%
IC50 (read-out: IC50): 0.045 µM

CC(C)OP(=O)(OC(C)C)C(Cc1ccc(F)c(C(F)(F)F)c1)c1cc2ccccc2s1 (centres unmarked) [Cpd 125]
% I (1 μM): 103%
IC50 (read-out: IC50): 0.39 µM

CCOP(=O)(Cc1cc2ccccc2s1)OCc1c(Cl)cccc1Cl (centres unmarked) [Cpd 94, Benzo[b]thiophen-2-ylmethyl-phosphonic acid 2,6-dichloro-benzyl ester ethyl ester]
% I (5 μM): 98%
inhibition at 1 µM [1]: 79%
IC50 (IC50 (μM)): 0.6 µM

CCOP(=O)(OCC)C(Cc1cc2ccccc2s1)c1cc2ccccc2s1 (centres unmarked) [Cpd 90]
% I (1 μM): 89%
IC50 (read-out: IC50): 0.54 µM

CC(C)OP(=O)(OC(C)C)C(Cc1ccc(F)cc1)c1sc2cc(Br)ccc2c1Br (centres unmarked) [Cpd 200]
% I (1 μM): 81%

CC(C)OP(=O)(OC(C)C)C(Cc1ccc(F)c(C(F)(F)F)c1)c1sc2cccc(F)c2c1Br (racemic) [Cpd 222]
% I (0.5 μM): 103%
IC50 (read-out: IC50): 0.033 µM

CCOP(=O)(CC(C)C)C(Cc1ccc(F)c(F)c1)c1sc2ccccc2c1C (centres unmarked) [Cpd 6, [2-(3,4-Difluoro-phenyl)-1-(3-methyl-benzo[b]thiophene-2-yl)-ethyl]-isobutyl-phosphonic acid ethyl ester]
% I (1 μM): 100%
IC50 (read-out: IC50): 0.028 µM

CCOP(=O)(Cc1cc2ccccc2s1)OCc1ccccc1Cl (racemic) [Cpd 105]
% I (1 μM): 48%
% I (5 μM): 100%
IC50 (read-out: IC50): 1.01 µM

CC(C)OP(=O)(OC(C)C)C(Cc1ccc(F)c(Cl)c1)c1sc2ccccc2c1Cl (centres unmarked) [Cpd 253]
% I (0.5 μM): 103%
IC50 (read-out: IC50): 0.034 µM

CCOP(=O)(OCC)C(Cc1ccccc1F)c1csc2ccccc12 (centres unmarked) [Cpd 86]
% I (5 μM): 101%
IC50 (read-out: IC50): 0.5 µM

CCOP(=O)(OCC)C(Cc1cccc(O)c1)c1sc2ccccc2c1Br (centres unmarked) [Cpd 316]
% I (0.5 μM): 103% and 104%
IC50 (read-out: IC50): 0.032 µM and 0.02 µM

COc1cc(CC(c2sc3ccccc3c2Br)P(=O)(OC(C)C)OC(C)C)c(F)cc1Cl (racemic) [Cpd 165]
% I (0.5 μM): 102%
IC50 (read-out: IC50): 0.086 µM

CCOP(=O)(OCC)C(Cc1cc(C(F)(F)F)cc(C(F)(F)F)c1)c1sc2ccccc2c1Br (centres unmarked) [Cpd 261]
% I (0.5 μM): 102%
IC50 (read-out: IC50): 0.073 µM and 0.077 µM

CCOP(=O)(OCC)C(Cc1ccc(F)c(F)c1)c1sc2ccccc2c1-c1cccc(C(N)=O)c1 (racemic) [Cpd 218]
% I (0.5 μM): 79%
IC50 (read-out: IC50): 0.483 µM

CCOP(=O)(OCC)C(Cc1ccccc1Cl)c1sc2ccccc2c1Br (racemic) [Cpd 147]
% I (0.5 μM): 103%
IC50 (read-out: IC50): 0.125 µM

CCOP(=O)(OCC)C(Cc1cc(Cl)ccc1F)c1sc2ccccc2c1Br (racemic) [Cpd 307]
% I (0.5 μM): 103%
IC50 (read-out: IC50): 0.026 µM

COC(=O)COP(=O)(OCC(=O)OC)C(Cc1ccc(F)c(F)c1)c1sc2ccccc2c1Br (centres unmarked) [Cpd 212, {[1-(3-Bromo-benzo[b]thiophen-2-yl)-2-(3,4-difluoro-phenyl)-ethyl]-methoxycarbonylmethoxy-phosphinoyloxy}-acetic acid methyl ester]
inhibition at 0.5 µM [2]: 102%
IC50 (read-out: IC50): 0.119 µM

CCOP(=O)(OCC)C(Cc1ccccc1-c1ccccc1)c1sc2ccccc2c1C (centres unmarked) [Cpd 115]
% I (1 μM): 69%

CCOP(=O)(OCC)C(Cc1cccc([N+](=O)[O-])c1)c1sc2ccccc2c1Br (centres unmarked) [Cpd 315]
inhibition at 0.5 µM (HEK293, read-out: % I (0.5 μM), 0.5 μM compound): 103%
IC50 (IC50 (μM)): 0.041 µM

CC(C)OP(=O)(OC(C)C)C(Cc1ccc(C(F)(F)F)cc1F)c1sc2ccccc2c1Br (racemic) [Cpd 289]
% I (0.5 μM): 103%
IC50 (read-out: IC50): 0.051 µM

CCOP(=O)(OCC)C(Cc1cccc(Cl)c1F)c1sc2ccccc2c1Cl (centres unmarked) [Cpd 272]
% I (0.5 μM): 103%
IC50 (read-out: IC50): 0.114 µM

Cc1c(C(Cc2ccc(F)c(F)c2)P(=O)(OC2CCCCC2)OC2CCCCC2)sc2ccccc12 (centres unmarked) [Cpd 101, [2-(3,4-Difluoro-phenyl)-1-(3-methyl-benzo[b]thiophen-2-yl)-ethyl]-phosphonic acid dicyclohexyl ester]
inhibition at 1 µM [3]: 55%
IC50 (read-out: IC50): 0.75 µM

CC(C)OP(=O)(OC(C)C)C(Cc1ccc(S(=O)(=O)C(F)(F)F)cc1)c1sc2ccccc2c1Br (centres unmarked) [Cpd 263]
% I (0.5 μM): 103%
IC50 (read-out: IC50): 0.022 µM

CCOP(=O)(OCC)C(Cc1ccc(C(F)(F)F)cc1)c1sc2ccccc2c1Cl (racemic) [Cpd 285]
% I (0.5 μM): 103%
IC50 (read-out: IC50): 0.125 µM

CC(C)OP(=O)(OC(C)C)C(Cc1ccc(F)c(F)c1)c1sc2ccccc2c1C1CC1 (centres unmarked) [Cpd 20, [1-(3-Cyclopropyl-benzo[b]thiophene-2-yl)-2-(3,4-difluoro-phenyl)-ethyl]-phosphonic acid diisopropyl ester]
inhibition at 1 µM [3]: 100%
IC50 (read-out: IC50): 0.07 µM

COc1ccc(CC(c2sc3ccccc3c2Cl)P(=O)(OC(C)C)OC(C)C)cc1C(F)(F)F (centres unmarked) [Cpd 176]
% I (0.5 μM): 104%
IC50 (read-out: IC50): 0.131 µM

CCOP(=O)(OCC)C(Cc1ccc(F)c(F)c1)c1oc2ccccc2c1Br (centres unmarked) [Cpd 266]
% I (1 μM): 103%
IC50 (read-out: IC50): 0.051 µM

CCOP(=O)(OCC)C(Cc1cc(Cl)ccc1F)c1sc2ccccc2c1Cl (racemic) [Cpd 305]
% I (0.5 μM): 102%
IC50 (read-out: IC50): 0.07 µM

CC(C)OP(=O)(OC(C)C)C(Cc1ccc(F)c(F)c1)c1sc2ccccc2c1C(F)(F)F (centres unmarked) [Cpd 43, [2-(3,4-Difluoro-phenyl)-1-(3-trifluoromethyl-benzo[b]-thiophene-2-yl)-ethyl]-phosphonic acid diisopropyl ester]
inhibition at 1 µM [3]: 100%
IC50 (read-out: IC50): 0.16 µM

CCOP(=O)(OCC)C(Cc1cccc(C(F)(F)F)c1Cl)c1sc2ccccc2c1Br (racemic) [Cpd 151]
% I (0.5 μM): 103%
IC50 (read-out: IC50): 0.12 µM

CCOP(=O)(OCC)C(Cc1ccccc1Cl)c1sc2ccccc2c1C (centres unmarked) [Cpd 48]
% I (1 μM): 100%
IC50 (read-out: IC50): 0.169 µM

CCOP(=O)(OCC)C(Cc1ccc(C(F)(F)F)c(F)c1)c1cc2ccccc2s1 (centres unmarked) [Cpd 58]
% I (1 μM): 100%
IC50 (read-out: IC50): 0.27 µM

COc1ccc(CC(c2sc3ccccc3c2Br)P(=O)(OC(C)C)OC(C)C)cc1C(F)(F)F (centres unmarked) [Cpd 326]
% I (0.5 μM): 103% and 102%
IC50 (read-out: IC50): 0.086 µM and 0.051 µM

CCCCOP(=O)(OCCCC)C(Cc1ccc(F)c(F)c1)c1sc2ccccc2c1Br (centres unmarked) [Cpd 209, [1-(3-Bromo-benzo[b]thiophen-2-yl)-2-(3,4-difluoro-phenyl)-ethyl]-phosphonic acid dibutyl ester]
inhibition at 0.5 µM [2]: 104%
IC50 (read-out: IC50): 0.071 µM

CC(C)OP(=O)(OC(C)C)C(Cc1ccc(F)c(C(F)(F)F)c1)c1c(Br)c2ccccc2n1C (centres unmarked) [Cpd 328, [1-(3-Bromo-1-methyl-1H-indol-2-yl)-2-(4-fluoro-3-trifluoromethyl-phenyl)-ethyl]-phosphonic acid diisopropyl ester]
inhibition at 0.5 µM [2]: 102%
IC50 (read-out: IC50): 0.193 µM

CCOP(=O)(OCC)C(Cc1c(F)c(F)c(O)c(F)c1F)c1sc2ccccc2c1Br (racemic) [Cpd 228]
% I (0.5 μM): 94%
IC50 (read-out: IC50): 0.129 µM

CCOP(=O)(OCC)C(Cc1c(Cl)cccc1Cl)c1cc2ccccc2s1 (centres unmarked) [Cpd 95]
% I (1 μM): 89%
% I (5 μM): 100%
IC50 (read-out: IC50): 0.6 µM

Reference: patent US20080287398A1, “COLD MENTHOL RECEPTOR-1 ANTAGONISTS” (priority 2007, published 2008)
